One series can be described thus: pKa of couplers, neutralization-titration method. The following applies: neutralization-titration method (asterisk). The format is physicochemical. An excerpt:
(§1) In this invention, a pKa value means a common logarithmic value of the reciprocal of a proton-dissociation equilibrium constant K at the active site of a coupler.
As described in, for example, J.C.S., Perkin I, 809(1973) and 1768(1973), J. Phot. Sci., 22,49(1974), E. Pelizzrtti(3M, Italia), C. Saini(Toino Vniv.) and J. Phot. Sci., 13,248(1985) B. P. Brand (ICI), a pKa value can be measured in a spectrophotometric method or a neutralization-titration mehtod, using a suitable solvent such as a mixture of water and organic solvent. […]
Certain of couplers have plural dissociable protons. […] Among those values, however, each pKa value of this invention means a value measured in relation to making anionic the nucleus of a coupler capable of forming a dye upon coupling reaction with the oxidized product of a color developing agent.
Either of the above-described two measurement methods may be so selected out as to meet the characteristics of a coupler subjected to a measurement. […] Howerer, the difference in pKa value between a magenta coupler and yellow coupler used in the invention, i.e., a value of pKa 1-pKa 2, can be applied to the invention, provided that both of the pKa1 and pKa2 values are measured in one and the same method of the two.
In Table 1, pKa values with asterisks are values measured by the neutralization-titration method. […]
The term pKa denotes the negative logarithm of the acid dissociation constant. High values mean a weaker acid or stronger base, low ones a stronger acid or weaker base. In turn, `CCCCCCCCCCCCCC(=O)Nc1ccc(Cl)c(NC2=NN(c3c(Cl)cc(Cl)cc3Cl)C(=O)C2)c1` [MC-1] came in with a pKa of 10.07.

A short description of another series: pKa of couplers, spectrophotometric method. The following applies: spectrophotometric method (no asterisk); 2-butoxyethanol and water (30:70). The format is physicochemical.
Source text: as §1
As described in, for example, J.C.S., Perkin I, 809(1973) and 1768(1973), J. Phot. Sci., 22,49(1974), E. Pelizzrtti(3M, Italia), C. Saini(Toino Vniv.) and J. Phot. Sci., 13,248(1985) B. P. Brand (ICI), a pKa value can be measured in a spectrophotometric method or a neutralization-titration mehtod, using a suitable solvent such as a mixture of water and organic solvent.
In the spectrophotometric method, a pka value of coupler is regarded as a pH value obtained in correspondence with the inflection point of a rerational curve obtained between the pH and absorbance of a coupler solution, utilizing the fact that there is a difference in absorbance between the coupler itself and the anion thereof.
To be more concrete, the above-mentioned coupler solution is prepared by the use of a mixture of 2-butoxyethanol and water (30:70) as a solvent. The concentration of the coupler solution is adjusted to the order of 1×10^-5 to 1×10^-2 M so that pKa values can readily be measured. The coupler solution is added with anhydrous potassium carbonate in an amount of 3 g per liter, and is further adjusted to be various pH values by adding hydrochloric acid and potassium hydroxide correspondingly. The spectral absorbance of each solution is then measured so as to obtain a relational curve made between the pH value and the spectral absorbance of each solution.
Certain of couplers have plural dissociable protons. In those cases, plural pKa values may be obtained. Among those values, however, each pKa value of this invention means a value measured in relation to making anionic the nucleus of a coupler capable of forming a dye upon coupling reaction with the oxidized product of a color developing agent.
Either of the above-described two measurement methods may be so selected out as to meet the characteristics of a coupler subjected to a measurement. When measuring one and the same coupler in the two methods, respectively, there are some differences between the resulted pKa values. Howerer, the difference in pKa value between a magenta coupler and yellow coupler used in the invention, i.e., a value of pKa 1-pKa 2, can be applied to the invention, provided that both of the pKa1 and pKa2 values are measured in one and the same method of the two.
In Table 1, pKa values with asterisks are values measured by the neutralization-titration method. The other valves without asterisk are measured by the spectrophotometric method.
Asterisks in Table 2 have the same mean as in Table 1.
In turn, `CCCCOc1ccc(NS(=O)(=O)c2cc(C(C)(C)CC(C)(C)C)ccc2OCCCC)cc1S(=O)(=O)Nc1ccc(CCCc2n[nH]c3c(Cl)c(C(C)(C)C)nn23)cc1` [M-44] displayed a pKa of 10.80.

`CCCCCCCCCCC(Oc1ccc(C(C)(C)c2ccc(O)cc2)cc1)C(=O)Nc1ccc(S(=O)(=O)CCc2n[nH]c3c(Cl)c(C)nn23)cc1` (stereo not drawn) [M-12] came in with a pKa of 9.71.

With `CCCCCCCCCCCCCCCCCCS(=O)(=O)CC(C)c1n[nH]c2c(Cl)c(C)nn12` (stereo not drawn) [M-3], the pKa is 8.99.

For the compound `CCC(C)(C)c1ccc(OCCCC(=O)Nc2ccc(Cl)c(NC(=O)C(Oc3ccc(S(=O)(=O)c4ccc(OCc5ccccc5)cc4)cc3)C(=O)C(C)(C)C)c2)c(C(C)(C)CC)c1` (stereo not drawn) [Y-8], the pKa stood at 8.60.

Compound `CCC(C)(C)c1ccc(OCC(=O)Nc2ccc(S(=O)(=O)CC(C)(C)c3n[nH]c4c(Cl)c(C(C)(C)C)nn34)cc2)c(C(C)(C)CC)c1` [M-40] showed a pKa of 9.90.

The compound `CCCCCCCCC(CCCCCC)CS(=O)(=O)CCc1n[nH]c2c(Cl)c(C)nn12` (stereo not drawn) [M-4] displayed a pKa of 9.11.

`CCCCCCCCCCCCOc1ccc(S(=O)(=O)Nc2ccc(CCCc3n[nH]c4c(Cl)c(C)nn34)cc2)cc1` [M-1] registered a pKa of 10.24.

In turn, `CCCCCCCCC(CCCCCC)CS(=O)(=O)CCc1nn2c(C)n[nH]c2c1Cl` (stereo not drawn) [M-9] displayed a pKa of 9.18.

As to `CCCCC(Oc1ccc(C(C)(C)CC)cc1C(C)(C)CC)C(=O)Nc1ccc(CCc2n[nH]c3c(Cl)c(CC)nn23)cc1` (stereo not drawn) [M-16], the pKa is given as 10.30.

As for `CCCCOc1ccc(C(C)(C)CC(C)(C)C)cc1S(=O)(=O)CCCc1n[nH]c2c(Cl)c(C(C)C)nn12` [M-21], the pKa was found to be 10.07.

With `CCCCCCCCOc1ccc(C)cc1S(=O)(=O)CCS(=O)(=O)CCC(C)c1n[nH]c2c(Cl)c(C(C)C)nn12` (stereo not drawn) [M-26], the pKa came to 9.68.

Compound `CCCCCCCCCCCCCCCCS(=O)(=O)CCC(C)c1n[nH]c2c(Cl)c(C(C)C)nn12` (stereo not drawn) [M-22] yielded a pKa of 9.70.

With `CCCCOc1ccc(C(C)(C)CC(C)(C)C)cc1S(=O)(=O)CCCc1n[nH]c2c(Cl)c(C(C)(C)C)nn12` [M-33], the pKa is recorded as 10.39.

Consider `CCCCOc1ccc(C(C)(C)CC(C)(C)C)cc1Sc1c(SCC)nn2c(CCNC(=O)C(CCCC)Oc3ccc(C(C)(C)CC)cc3C(C)(C)CC)n[nH]c12` (stereo not drawn) [M-49], for which the pKa came to 9.43.
